Measured values from US20230201173A1, “SMAD4 Complex Inducers and Uses in Cancer Therapy” (Emory University, priority 2021, published 2023).

Assays:
[1] = test system: HCT116 isogenic SMAD4 R361H cells; experiment: Colony formation assay; type: cell-based; conditions: TGF-β 10 ng/mL; Ro-31-8220 1 μM, Go-6983 10 μM
Experimental: Parental HCT116 (WT) and isogenic R361H cells were treated with TGF-β (10 ng/mL), Ro-31-8220 (1 μM), Go-6983 (10 μM), or in combination as indicated.
(§1) Experiments indicate that Ro-31-8220 is capable of restoring the SMAD4mut/SMAD3 PPI and the tumor-suppressive TGF-β signaling in the SMAD4 mutation cells. Experiments were also performed to determine whether Ro-31-8220 can promote TGF-β-evoked anti-proliferation function in cancer cells with SMAD4 missense mutations. Three functional assays were performed to measure the effect of Ro-31-8220 on cell-cycle progression, cell proliferation, and colony formation with WT and isogenic SMAD4 mutant colon cancer cells.
The lost tumor suppressor function of mutated SMAD4, R361H, can be recapitulated in an in vitro tumorigenic assay. Colon cancer HCT116 cells with WT and their isogenic mutant SMAD4 cells can grow into large colonies.

[2] = test system: SMAD4R361H with R-SMADs (SMAD3, SMAD2, SMAD1, SMAD5, SMAD8); experiment: TR-FRET assay of SMAD4R361H with different R-SMAD isoforms; type: binding, Homo sapiens; conditions: for R-SMAD selectivity in inducing the interaction of SMAD4R361H with SMAD3 and SMAD2: among all the tested R-SMADs; for compound-induced TR-FRET signal for SMAD4R361H interaction with SMAD3 versus other R-SMADs: compound titration
Experimental: To determine the R-SMADs selectivity of Ro-31-8220 and Go-6983, experiments were performed to determine their effects on inducing PPI between SMAD4R361H and different isoforms of R-SMADs using the TR-FRET assay.

SMAD4R361H-SMAD3 complex = molecular target: T1, SMAD4R361H-SMAD3 complex (Homo sapiens, UniProt Q13485, R361H); experiment: GST beads pull-down assay of SMAD4R361H-SMAD3 complex formation; type: binding; conditions: cell lysate treated with compound, read-out: EC50, amount of SMAD3 in the SMAD4R361H complex
T1 construct: expressed in transfected cells

[3] = test system: HCT116 cells (WT), SMAD4 knockout (null) and R361H isogenic cells; experiment: Cell viability (CellTiter-Blue) in isogenic colon cancer cells; type: cell-based; conditions: Ro-31-8220 1 μM
Experimental: HCT116 cells (WT) and corresponding SMAD4 knockout (null) or R361H, isogenic cells were treated with TGF-β (10 ng/mL), Ro-31-8220 (1 μM), Go-6983 (10 μM), or in combination as indicated. The cell viability after treatment was measured using the CellTiter-Blue™ reagent and normalized to the untreated vehicle or DMSO controls (% C).
as §1
Thus, the effect of Ro-31-8220 on TGF-β-regulated cell proliferation was examined in the context of the SMAD4 mutation. TGF-β induced a significant decrease of cell viability of SMAD4 WT cells, while the isogenic SMAD4 null or R361H cells were resistant to such TGF-β-induced growth suppression (FIG. 3B).

[4] = molecular target: T2, His-SMAD4R361H/Flag-SMAD3 PPI (Homo sapiens, UniProt Q13485, R361H); experiment: TR-FRET assay of the SMAD4R361H/SMAD3 protein-protein interaction in cell lysate; type: binding; conditions: dose-response, read-out: EC50, increase of the TR-FRET signal of SMAD4R361H-SMAD3 PPI
T2 construct: expressed in transfected cells; host or cells: HEK293T

SMAD4D351H-SMAD3 PPI = molecular target: T3, SMAD4D351H-SMAD3 PPI (Homo sapiens, UniProt Q13485, D351H); experiment: GST pull-down assay of SMAD4D351H-SMAD3 complex formation; type: binding; conditions: DMSO as control
T3 construct: expressed in transfected cells
Description: To evaluate the mutation selectivity of Ro-31-8220 and Go-6983, their potentiation effect on other SMAD4 loss-of-function mutations, such as D351H, was examined. The PPI between SMAD3 and SMAD4D351H was studied in the presence of these compounds with DMSO as a control.

R361H cells = experiment: Transcriptional response to TGF-β (pro-apoptotic and pro-autophagy genes); type: cell-based
[5] = test system: HCT116 isogenic SMAD4 R361H cells; experiment: Flow cytometry-based cell-cycle analysis (G1/S phase); conditions: TGF-β 10 ng/mL; Ro-31-8220 1 μM, Go-6983 10 μM
Experimental: Parental HCT116 (WT) and isogenic R361H cells were treated with TGF-β (10 ng/mL), Ro-31-8220 (1 μM), Go-6983 (10 μM), or in combination as indicated. The percentage of cells staying in G1/S phase was determined by flow cytometry.
as §1

Flag-SMAD3, P84022 = experiment: TR-FRET, HEK293T cell lysate, anti-Flag-Tb / anti-His-D2; conditions: remark: other sources report otherwise
Flag-SMAD3, P84022, sequence (P84022 whole entry): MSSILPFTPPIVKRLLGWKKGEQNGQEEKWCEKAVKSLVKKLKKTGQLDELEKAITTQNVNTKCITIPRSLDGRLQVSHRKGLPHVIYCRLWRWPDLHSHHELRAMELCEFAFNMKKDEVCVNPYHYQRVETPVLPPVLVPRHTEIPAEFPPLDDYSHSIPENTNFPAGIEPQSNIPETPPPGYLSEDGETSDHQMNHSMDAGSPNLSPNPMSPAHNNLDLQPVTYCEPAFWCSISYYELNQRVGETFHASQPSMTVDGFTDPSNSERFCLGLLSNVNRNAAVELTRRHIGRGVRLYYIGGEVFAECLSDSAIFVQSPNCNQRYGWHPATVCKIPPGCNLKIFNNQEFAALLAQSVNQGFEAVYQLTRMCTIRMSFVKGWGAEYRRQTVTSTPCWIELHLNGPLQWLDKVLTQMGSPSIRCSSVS

T3 sequence (Q13485 whole entry D351H): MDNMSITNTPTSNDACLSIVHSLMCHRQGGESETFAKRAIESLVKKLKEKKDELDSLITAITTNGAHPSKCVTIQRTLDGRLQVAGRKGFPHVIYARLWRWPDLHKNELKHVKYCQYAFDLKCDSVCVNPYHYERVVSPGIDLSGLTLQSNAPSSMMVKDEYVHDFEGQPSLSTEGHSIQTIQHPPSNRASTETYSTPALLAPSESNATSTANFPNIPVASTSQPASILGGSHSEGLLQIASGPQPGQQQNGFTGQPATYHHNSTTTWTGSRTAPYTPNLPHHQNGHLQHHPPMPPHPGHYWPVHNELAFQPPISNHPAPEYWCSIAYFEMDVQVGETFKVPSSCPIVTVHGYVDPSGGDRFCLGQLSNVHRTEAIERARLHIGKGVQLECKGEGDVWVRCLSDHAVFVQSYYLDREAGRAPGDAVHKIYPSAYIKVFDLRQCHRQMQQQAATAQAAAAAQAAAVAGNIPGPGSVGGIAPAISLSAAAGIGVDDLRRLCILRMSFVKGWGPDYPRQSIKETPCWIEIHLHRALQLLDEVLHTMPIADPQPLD
T3 sequence (P84022 whole entry partner): as the sequence (P84022 whole entry) above
T2 sequence (P84022 whole entry partner, one chain of several): as the sequence (P84022 whole entry) above
T1 sequence (P84022 whole entry partner, one chain of several): as the sequence (P84022 whole entry) above

Row | Molecule | combination with TGF-β in inhibiting colon cancer cell colony formation [1] | R-SMAD selectivity in inducing the interaction of SMAD4R361H with SMAD3 and SMAD2 [2] | compound-induced TR-FRET signal for SMAD4R361H interaction with SMAD3 versus other R-SMADs [2] | EC50 (SMAD4R361H-SMAD3 complex) | combination with TGF-β in inhibiting cell viability ([3]; TGF-β 10 ng/mL, Go-6983 10 μM) | EC50 [4] | SMAD3 level in the D351H GST pull-down complex (SMAD4D351H-SMAD3 PPI) | colony area of R361H cells, sensitivity to TGF-β-induced inhibition of colony formation [1] | sensitivity of SMAD4 R361H cells to TGF-β-induced growth suppression ([3]; R361H cells, TGF-β 10 ng/mL, Go-6983 10 μM) | growth inhibition by compound treatment alone ([3]; SMAD4 WT, null and R361H cells) | transcriptional response of R361H cells to TGF-β (R361H cells) | sensitivity of R361H cells to TGF-β-induced G1/S cell-cycle arrest [5] | signal-to-background ratio (Flag-SMAD3, P84022)
1 | COc1ccc2c(c1)c(C1=C(c3c[nH]c4ccccc34)C(=O)NC1=O)cn2CCCN(C)C [Go-6983, 3-(1-(3-(dimethylamino)propyl)-5-methoxy-1H-indol-3-yl)-4-(1H-indol-3-yl)-1H-pyrrole-2,5-dione] | synergistic effect | selective | significantly higher | 8.9 ± 0.7 µM | synergistic effect | 15.2 ± 2.9 µM | significantly restored |  |  |  |  |  | 
2 | Cn1cc(C2=C(c3cn(CCCSC(=N)N)c4ccccc34)C(=O)NC2=O)c2ccccc21 [Ro-31-8220, 3-(3-(4-(1-methyl-1H-indol-3-yl)-2,5-dioxo-2,5-dihydro-1H-pyrrol-3-yl)-1H-indol-1-yl)propyl carbamimidothioate] | synergistic effect | selective | significantly higher | 2.1 ± 0.7 µM | synergistic effect | 3.9 ± 1 µM | significantly restored | significantly decreased colony area | restored the sensitivity | did not result in any significant growth inhibition | restored the transcriptional response | regained sensitivity | 
3 | His-SMAD4WT, Q13485 1-552 (protein, not shown: small tags and cut ends) MDNMSITNTPTSNDACLSIVHSLMCHRQGGESETFAKRAIESLVKKLKEKKDELDSLITAITTNGAHPSKCVTIQRTLDGRLQVAGRKGFPHVIYARLWRWPDLHKNELKHVKYCQYAFDLKCDSVCVNPYHYERVVSPGIDLSGLTLQSNAPSSMMVKDEYVHDFEGQPSLSTEGHSIQTIQHPPSNRASTETYSTPALLAPSESNATSTANFPNIPVASTSQPASILGGSHSEGLLQIASGPQPGQQQNGFTGQPATYHHNSTTTWTGSRTAPYTPNLPHHQNGHLQHHPPMPPHPGHYWPVHNELAFQPPISNHPAPEYWCSIAYFEMDVQVGETFKVPSSCPIVTVDGYVDPSGGDRFCLGQLSNVHRTEAIERARLHIGKGVQLECKGEGDVWVRCLSDHAVFVQSYYLDREAGRAPGDAVHKIYPSAYIKVFDLRQCHRQMQQQAATAQAAAAAQAAAVAGNIPGPGSVGGIAPAISLSAAAGIGVDDLRRLCILRMSFVKGWGPDYPRQSIKETPCWIEIHLHRALQLLDEVLHTMPIADPQPLD |  |  |  |  |  |  |  |  |  |  |  |  | 30 fold
4 | His-SMAD4R361H, Q13485 1-552 (protein, not shown: small tags and cut ends) MDNMSITNTPTSNDACLSIVHSLMCHRQGGESETFAKRAIESLVKKLKEKKDELDSLITAITTNGAHPSKCVTIQRTLDGRLQVAGRKGFPHVIYARLWRWPDLHKNELKHVKYCQYAFDLKCDSVCVNPYHYERVVSPGIDLSGLTLQSNAPSSMMVKDEYVHDFEGQPSLSTEGHSIQTIQHPPSNRASTETYSTPALLAPSESNATSTANFPNIPVASTSQPASILGGSHSEGLLQIASGPQPGQQQNGFTGQPATYHHNSTTTWTGSRTAPYTPNLPHHQNGHLQHHPPMPPHPGHYWPVHNELAFQPPISNHPAPEYWCSIAYFEMDVQVGETFKVPSSCPIVTVDGYVDPSGGDHFCLGQLSNVHRTEAIERARLHIGKGVQLECKGEGDVWVRCLSDHAVFVQSYYLDREAGRAPGDAVHKIYPSAYIKVFDLRQCHRQMQQQAATAQAAAAAQAAAVAGNIPGPGSVGGIAPAISLSAAAGIGVDDLRRLCILRMSFVKGWGPDYPRQSIKETPCWIEIHLHRALQLLDEVLHTMPIADPQPLD |  |  |  |  |  |  |  |  |  |  |  |  | 10 fold
